Results taken from BindingDB's records for doi:10.1021/jm040037k (Abbott Laboratories, 2004).
Square brackets hold non-standard residues; d marks the D form. Peptide text beside a SMILES is read from it. * marks the point of attachment. Tle = CC(C)(C)[C@H](N)C(=O)O; NMeA = CN[C@@H](C)C(=O)O; βNA = c1ccc2cc(N*)ccc2c1

molecular target: T1, E3 ubiquitin-protein ligase XIAP [241-356] (Homo sapiens, UniProt P98170); assay: Ligand Binding Assay; details: pH 7.4; 22 °C
T1 construct: 241-356
Experimental: A fluorescence polarization anisotropy (FPA) competition assay was used to determine the affinities of compounds to BIR3 protein. Fluorescence polarization measurements were carried out on an Analyst 96-well plate reader. 6-Carboxyfluorescein (FAM) labeled peptides with the sequences AVPIAQK (FAM)-NH2 was used as a probe. Dissociation constants were determined from titration curves with in-house written software.

T1 sequence (P98170 241-356): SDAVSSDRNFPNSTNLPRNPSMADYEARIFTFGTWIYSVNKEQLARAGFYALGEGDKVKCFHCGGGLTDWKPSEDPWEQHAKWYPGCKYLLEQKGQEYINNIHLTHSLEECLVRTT

Structure (SMILES) | Kd [nM]
CN[C@@H](C)C(=O)N[C@H](C(=O)N1CCC[C@H]1C(=O)Nc1cccc2ccccc12)C(C)(C)C [H-N-Me-Ala-Tle-Pro-naphth-1-yl Amide] | > 500
C[C@@H](C(=O)N[C@H](C(=O)N1C[C@@H](Oc2ccccc2)C[C@H]1C(=O)N[C@@H]1CCCc2ccccc21)C(C)(C)C)N(C)C [(2S,4S)-1-[(2S)-2-[(2S)-2-(dimethylamino)propanamido]-3,3-dimethylbutanoyl]-4-phenoxy-N-[(1R)-1,2,3,4-tetrahydronaphthalen-1-yl]pyrrolidine-2-carboxamide] | > 1000
CN[C@@H](C)C(=O)N[C@H](C(=O)N1CCC[C@H]1C(=O)N[C@H]1CCc2ccccc21)C(C)(C)C [H-N-Me-Ala-Tle-Pro-(S)-indan-1-yl Amide] | > 1000
C[C@@H](C(=O)N[C@H](C(=O)N1CCC[C@H]1C(=O)N[C@@H]1CCCc2ccccc21)C1CCCCC1)N(C)C [(2S)-1-[(2S)-2-cyclohexyl-2-[(2S)-2-(dimethylamino)propanamido]acetyl]-N-[(1R)-1,2,3,4-tetrahydronaphthalen-1-yl]pyrrolidine-2-carboxamide] | > 1000
CN[C@@H](C)C(=O)N[C@H](C(=O)N1CCC[C@H]1C(=O)Nc1ccc2ccccc2c1)C(C)(C)C [(2S)-1-[(2S)-3,3-dimethyl-2-[(2S)-2-(methylamino)propanamido]butanoyl]-N-(naphthalen-2-yl)pyrrolidine-2-carboxamide] (H-[NMeA]-[Tle]-Pro-βNA) | > 1000
C[C@@H](C(=O)N[C@H](C(=O)N1CCC[C@H]1C(=O)N[C@@H]1CCCc2ccccc21)C(C)(C)C)N(C)C [(2S)-1-[(2S)-2-[(2S)-2-(dimethylamino)propanamido]-3,3-dimethylbutanoyl]-N-[(1R)-1,2,3,4-tetrahydronaphthalen-1-yl]pyrrolidine-2-carboxamide] | > 1000
CN[C@@H](C)C(=O)N[C@H](C(=O)N1CCC[C@H]1C(=O)N[C@@H]1CCc2ccccc21)C(C)(C)C [(2S)-N-[(1R)-2,3-dihydro-1H-inden-1-yl]-1-[(2S)-3,3-dimethyl-2-[(2S)-2-(methylamino)propanamido]butanoyl]pyrrolidine-2-carboxamide] | 29
CN[C@@H](C)C(=O)N[C@H](C(=O)N1CCC[C@H]1C(=O)NC1c2ccccc2-c2ccccc21)C(C)(C)C [H-N-Me-Ala-Tle-Pro-fluoren-9-yl Amide] | 47
